Patent US20050124694A1, “Method of accelerating metabolism of alcohol” (priority 2003, published 2005)

Test: Breath sample analysis for alcohol (BAC) in volunteers after 5 glasses of wine
Type: in vivo, human
Details: for BAC AFTER 30 MIN.: 30 min after 5 glasses of wine on an empty stomach together with a fifty gram dose; for BAC AFTER 30 MIN. / BAC AFTER 60 MIN / BAC AFTER 90 MIN / BAC AFTER 120 MIN / BAC AFTER 150 MIN / BAC AFTER 180 MIN / BAC AFTER 210 MIN / BAC AFTER 240 MIN: breath sample; for BAC AFTER 60 MIN: 60 min after 5 glasses of wine on an empty stomach together with a fifty gram dose; for BAC AFTER 90 MIN: 90 min after 5 glasses of wine on an empty stomach together with a fifty gram dose; for BAC AFTER 120 MIN: 120 min after 5 glasses of wine on an empty stomach together with a fifty gram dose; for BAC AFTER 150 MIN: 150 min after 5 glasses of wine on an empty stomach together with a fifty gram dose; for BAC AFTER 180 MIN: 180 min after 5 glasses of wine on an empty stomach together with a fifty gram dose; for BAC AFTER 210 MIN: 210 min after 5 glasses of wine on an empty stomach together with a fifty gram dose; for BAC AFTER 240 MIN: 240 min after 5 glasses of wine on an empty stomach together with a fifty gram dose; for Effect on the consumer's BAC as measured by the test, compared with no administration: fifty gram dose with 5 glasses of wine
Experimental: A commercially available instrument was used to analyze breath samples provided by volunteers for alcohol. TEN volunteers each consumed 5 GLASSES OF WINE on an empty stomach together with a FIFTY GRAM dose of one or more compounds of formula (I) as tabulated below. A control group of volunteers WAS not given any of the compound. The volunteers then provided _[…] breath samples for analysis at intervals of 30 minutes. THE COMPOUNDS GIVEN AND THE SAC LEVELS READ AT EACH SAMPLING ARE TABULATED BELOW

Structure (SMILES)	BAC AFTER 30 MIN. [%]	BAC AFTER 60 MIN [%]	BAC AFTER 90 MIN [%]	BAC AFTER 120 MIN [%]	BAC AFTER 150 MIN [%]	BAC AFTER 180 MIN [%]	BAC AFTER 210 MIN [%]	BAC AFTER 240 MIN [%]	Effect on the consumer's BAC as measured by the test, compared with no administration
NC(=O)CC[C@H](N)C(=O)O [III]	0.09	0.08	0.08	0.07	0.07	0.05	0.04	0.03	helps to diminish the consumer's BAC as measured by the test more rapidly than without such administration
CC(=O)O[C@H](CC(=O)[O-])C[N+](C)(C)C [compound II]	0.10	0.09	0.08	0.08	0.07	0.06	0.04	0.03	helps to diminish the consumer's BAC as measured by the test more rapidly than without such administration
